Assay results published in the supplement of paper PMC11208160.

Assay: recombinant barcode read abundance after kanamycin selection (control-corrected) (log10(CPM+1)); higher = more efficient recombination; sequences stand for … in AGTGCAGAGAAAATCGGCCAGTTTTCTCTGCCTGCAGTCCGCATGCCGT…AGATTTATGCAGCGGACTGCCTTTCTCCCAAAGTGATAAACCGGACAGTATCATGGACCGGTTTTCCCGGTAATCCGTATTTGCAAGGTTGGTTTCACT; site = the 11-nt target
Summary of the method: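 A vector carrying a T7-inducible recombinase and the last 73 bp of the bridge RNA received, by Gibson cloning, oligos encoding a promoter, target, barcode and the first 104 bridge RNA bases under J23119. The pooled constructs entered E. coli together with a donor plasmid by electroporation. Selection used chloramphenicol/ampicillin/kanamycin with 0.1 mM IPTG, with chloramphenicol/ampicillin LB agar as the control, each in two replicates. Recombination efficiency is the averaged, control-corrected counts-per-million of barcodes at recombinant junctions, reported as log10(CPM+1).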
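Note: IS621 recombinase and bridge RNA in Escherichia coli cells.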

Row | Sequence | recombinant barcode read abundance (log10)
1 | TATCCATCTTGGGTTCTAACCTGTTGCCT (site TATCCATCTAG) | 0.618
2 | TATGAGGCTTGGGTTCTAACCTGTTGCCT (site TATGAGGCTAG) | 0.433
3 | TATGAGGCTTGGGTTCTAACCTGTTGCCT (site TATGCGGCTAG) | 0.26
4 | TATGAGGCTTGGGTTCTAACCTGTTGCCT (site TATGGGGCTAG) | 0.0447
5 | TATGAGGCTTGGGTTCTAACCTGTTGCCT (site TATGTGGCTAG) | 0.162
6 | TATGGAGCTTGGGTTCTAACCTGTTGCAG (site GTTGGAGCTCT) | 1.14
7 | TATGGAGCTTGGGTTCTAACCTGTTGCAG (site TATGGAGCTCT) | 2.34
8 | TATGTAGCTTGGGTTCTAACCTGTTGCCC (site TATGTAGCTAG) | 0.226
9 | TATGTAGCTTGGGTTCTAACCTGTTGCCC (site TATGTAGCTCG) | 0.0813
10 | TATGTAGCTTGGGTTCTAACCTGTTGCCC (site TATGTAGCTGG) | 1.36
11 | TATGTAGCTTGGGTTCTAACCTGTTGCCC (site TATGTAGCTTG) | 0.239
12 | TATTATACTTGGGTTCTAACCTGTTGCAT (site TATTATACTAA) | 0.0319
13 | TATTATACTTGGGTTCTAACCTGTTGCAT (site TATTATACTAC) | 0.0379
14 | TATTATACTTGGGTTCTAACCTGTTGCAT (site TATTATACTAG) | 0.0602
15 | TATTATACTTGGGTTCTAACCTGTTGCAT (site TATTATACTAT) | 0.167
16 | TATTATACTTGGGTTCTAACCTGTTGCGT (site TATTATACTAA) | 0.116

Row | Sequence | recombinant barcode read abundance (log10)
17 | TATTATACTTGGGTTCTAACCTGTTGCGT (site TATTATACTAC) | 0.335
18 | TATTATACTTGGGTTCTAACCTGTTGCGT (site TATTATACTAG) | 0.0727
19 | TATTATACTTGGGTTCTAACCTGTTGCGT (site TATTATACTAT) | 0.16
20 | TATTATACTTGGGTTCTAACCTGTTGCTT (site TATTATACTAA) | 0.0915
21 | TATTATACTTGGGTTCTAACCTGTTGCTT (site TATTATACTAC) | 0.116
22 | TATTATACTTGGGTTCTAACCTGTTGCTT (site TATTATACTAG) | 0.245
23 | TATTATACTTGGGTTCTAACCTGTTGCTT (site TATTATACTAT) | 0.34
24 | TATTCTACTTGGGTTCTAACCTGTTGCGC (site TATTCTACTAC) | 0.0305
25 | TATTCTACTTGGGTTCTAACCTGTTGCGC (site TATTCTACTCC) | 0.0687
26 | TATTCTACTTGGGTTCTAACCTGTTGCGC (site TATTCTACTGC) | 0.0329
27 | TATTCTACTTGGGTTCTAACCTGTTGCGC (site TATTCTACTTC) | 0.0215
28 | TATTGATCTTGGGTTCTAACCTGTTGCCT (site TAATGATCTAG) | 0.347
29 | TATTGATCTTGGGTTCTAACCTGTTGCCT (site TACTGATCTAG) | 0.162
30 | TATTGATCTTGGGTTCTAACCTGTTGCCT (site TAGTGATCTAG) | 0.0784
31 | TATTGATCTTGGGTTCTAACCTGTTGCCT (site TATTGATCTAG) | 0.235
32 | TATTGCCCTTGGGTTCTAACCTGTTGCCT (site TAATGCCCTAG) | 0.203
